Assay results reported in US9233965B2, “3,4-dihydropyrrolo[1,2-A]pyrazine-2,8(1H)-dicarboxamide derivatives, preparation thereof and therapeutic use thereof for diseases involving casein kinase 1 epsilon and/or casein kinase 1 delta” (SANOFI, priority 2010, dated 2016).
“And” between values parts separate entries of the source, which are not always exact repeats. Identical values can stand only once.

What was measured:
[1] = target: casein kinase 1 epsilon (CK1 epsilon) (Homo sapiens (Human), UniProt P49674); assay: Test A: inhibitory activity on CK1 epsilon, casein phosphorylation assay on ATP-33P filter plate; format: biochemical; conditions: IC50 values or IC50 ranges (result of several experiments), ATP 10 μM final
Chain of casein kinase 1 epsilon (CK1 epsilon) (P49674 whole entry): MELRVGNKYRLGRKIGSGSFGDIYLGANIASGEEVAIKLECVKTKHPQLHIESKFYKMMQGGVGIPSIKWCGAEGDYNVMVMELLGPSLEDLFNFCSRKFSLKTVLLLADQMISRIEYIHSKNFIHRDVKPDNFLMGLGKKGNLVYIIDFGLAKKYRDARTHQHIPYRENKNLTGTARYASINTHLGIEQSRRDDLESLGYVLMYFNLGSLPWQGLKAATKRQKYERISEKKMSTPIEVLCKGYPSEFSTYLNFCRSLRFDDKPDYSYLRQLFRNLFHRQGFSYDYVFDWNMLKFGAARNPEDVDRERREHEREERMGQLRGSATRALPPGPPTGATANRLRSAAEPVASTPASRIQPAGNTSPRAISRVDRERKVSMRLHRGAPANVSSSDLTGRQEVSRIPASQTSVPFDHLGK
Procedure, shortened: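 Human CK1 epsilon (3 ng/μL final) phosphorylates dephosphorylated casein (0.2 μg/μL) with ATP-33P plus 10 μM cold ATP (KM for ATP 21 μM), 2 h at room temperature, pH 7.5 Tris buffer. TCA-precipitated protein counted by scintillation; compounds at 10 to 0.001 μM give IC50 values or % inhibition at 10 μM.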

[2] = system: Mper1-luc Rat-1 (P2C4) fibroblasts; assay: Test C: circadian cell assay, mPer1-luciferase reporter period analysis; format: cell-based; conditions: effective concentration that induces a 1-hour prolongation of the circadian period; values or ranges from several experiments
Procedure: Test C: Experimental Protocol for Circadian Cell Assay
Mper1-luc Rat-1 (P2C4) fibroblast cultures were prepared by dividing the cultures every 3-4 days (about 10-20% of confluence) on 150 cm^2 degassed polystyrene tissue culture flasks (Falcon® #35-5001) and maintained in growth medium [EMEM (Cellgro #10-010-CV); 10% foetal bovine serum (FBS; Gibco #16000-044); and 50 I.U./mL of penicillin-streptomycin (Cellgro #30-001-Cl)] at 37° C. and under 5% CO2.
Cells obtained from Rat-1 fibroblast cultures at 30-50% of confluence as described above were co-transfected with vectors containing the selection marker for resistance to zeocin for a stable transfection and a luciferase reporter gene directed by the promoter mPer-1. After 24 to 48 hours, the cultures were divided on 96-well plates and maintained in growth medium supplemented with 50-100 μg/mL of zeocin (Invitrogen® #45-0430) for 10-14 days. The zeocin-resistant stable transfectants were evaluated for expression of the reporter by adding to the growth medium luciferin 100 μM (Promega® #E1603®) and by assaying the luciferase activity on a TopCount® scintillation counter (Packard model #C384V00). The Rat-1 cell clones expressing both zeocin resistance and luciferase activity directed by mPer1 were serum-shock-synchronized with 50% horse serum [HS (Gibco® #16050-122)] and the activity of the circadian reporter was evaluated. The P2C4 clone of fibroblasts Mper1-luc Rat-1 was selected to test the compound.
The Mper1-luc Rat-1 (P2C4) fibroblasts at 40-50% of confluence obtained according to the protocol described above were plated out onto 96-well opaque tissue culture plates (Perkin Elmer® #6005680). The cultures are maintained in growth medium supplemented with 100 μg/mL of zeocin (Invitrogen #45-0430) until they reached 100% of confluence (48-72 hours). The cultures were then synchronized with 100 μL of synchronization medium [EMEM (Cellgro #10-010-CV); 100 I.U./mL of penicillin-streptomycin (Cellgro #30-001-C1); 50% HS (Gibco #16050-122)] for 2 hours at 37° C. and under 5% CO2. After synchronization, the cultures were rinsed with 100 μL of EMEM (Cellgro #10-010-CV) for 10 minutes at room temperature. […]
The period analysis was performed either by determining the interval between the relative light emission minima over several days or by Fourier transform. […] The data were analysed by adjusting a hyperbolic curve to the data expressed as change of period (y-axis) as a function of the concentration of the test compound (x-axis) in the XLfit™ software and the EC Delta (t+1 h) was interpolated from this curve. […]

human CK1 delta = human CK1 delta (Homo sapiens (Human), UniProt P48730); assay: Test B: inhibitory activity on CK1 delta measured by FRET (Z'Lyte kinase assay kit); format: biochemical; conditions: substrate peptide SER/THR 11 2 μM, ATP 4 times the KM
Chain of human CK1 delta (P48730 whole entry): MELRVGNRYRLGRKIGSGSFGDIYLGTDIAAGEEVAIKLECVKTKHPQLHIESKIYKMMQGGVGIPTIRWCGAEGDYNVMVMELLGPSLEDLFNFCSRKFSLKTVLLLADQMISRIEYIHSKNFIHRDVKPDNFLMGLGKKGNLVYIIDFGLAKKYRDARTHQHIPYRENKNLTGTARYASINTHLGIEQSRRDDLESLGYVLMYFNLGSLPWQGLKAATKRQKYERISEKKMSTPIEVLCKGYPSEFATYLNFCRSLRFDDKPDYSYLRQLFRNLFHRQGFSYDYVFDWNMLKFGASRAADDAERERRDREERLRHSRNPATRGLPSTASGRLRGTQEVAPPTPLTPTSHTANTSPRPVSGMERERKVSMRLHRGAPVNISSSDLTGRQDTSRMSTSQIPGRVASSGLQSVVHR
From the text: Test B: Inhibitory Activity on CK1 Delta Measured by FRET
The capacity of the compounds of the invention to inhibit the phosphorylation of casein by the casein kinases 1 epsilon and delta may be evaluated using an FRET (Fluorescence Resonance Energy Transfer) fluorescence test with the aid of the “Z'Lyte™ kinase assay kit” (reference PV3670; Invitrogen Corporation™) according to the manufacturer's instructions.
The casein kinases 1 used are obtained from Invitrogen Corporation (human CK1 epsilon PV3500 and human CK1 delta PV3665).
A peptide substrate labelled at both ends with a fluorophore-donating group (coumarin) and a fluorophore-accepting group (fluorescein) constituting an FRET system is […] in the presence of ATP by casein kinase 1 epsilon or delta in the presence of increasing concentrations of compounds of the invention.
The mixture is treated with a site-specific protease that specifically cleaves the substrate peptide to form two fluorescent fragments having a large fluorescence emission ratio.
The fluorescence observed is thus related to the capacity of the products of the invention to inhibit the phosphorylation of the substrate peptide by casein kinase 1 epsilon or casein kinase 1 delta. […]
The emitted fluorescence is measured at wavelengths of 445 and 520 nm (excitation at 400 nm). […]

IC50 [1] | IC50 (human CK1 delta) | melting point | Compound | CE Delta (t + 1 h) [2]
0.005 to 0.104 µM |  |  | Cc1c(-c2ccccc2)c(C(N)=O)c2n1CCN(C(=O)NC(C)(C)C)C2 [Compound 3, N^2-tert-butyl-6-methyl-7-phenyl-3,4-dihydropyrrolo[1,2-a]pyrazine-2,8(1H)-dicarboxamide] | 8 nM
0.015 to 0.077 µM | 0.031 µM |  | CC(C)(C)NC(=O)N1CCn2c(c(C(N)=O)c(-c3ccccc3)c2C2CC2)C1 [Compound 10, N^2-tert-butyl-6-cyclo-propyl-7-phenyl-3,4-dihydropyrrolo[1,2-a]pyrazine-2,8(1H)-dicarboxamide] | 
0.001 to 0.012 µM |  | 197 to 199 °C and 192 to 195 °C | CC(C)(C)NC(=O)N1CCn2c(Cl)c(-c3ccccc3)c(C(N)=O)c2C1 [Compound 60, N^2-tert-butyl-6-chloro-7-phenyl-3,4-dihydropyrrolo[1,2-a]pyrazine-2,8(1H)-dicarboxamide] | 3 to 20 nM

Continued, compound first:

Compound | IC50 [1] | IC50 (human CK1 delta) | melting point | CE Delta (t + 1 h) [2]
CC(C)(C)NC(=O)N1CCn2c(c(C(N)=O)c(-c3ccc4ccccc4c3)c2C2CC2)C1 [Compound 25, N^2-tert-butyl-6-cyclo-propyl-7-(naphthalen-2-yl)-3,4-dihydropyrrolo[1,2-a]pyrazine-2,8(1H)-dicarboxamide] | 0.033 µM |  |  | 26 nM
NC(=O)c1c(-c2ccccc2)c(C2CC2)n2c1CN(C(=O)NC13CC4CC(CC(C4)C1)C3)CC2 [Compound 54, N^2-(adamantan-1-yl)-6-cyclo-propyl-7-phenyl-3,4-dihydropyrrolo[1,2-a]pyrazine-2,8(1H)-dicarboxamide] | 0.006 µM |  |  | 15 nM
